Assay [1] can be described thus: (§1) Antimicrobial activity against Salmonella enterica serotype Virchow isolate AM23818 expressing rmtC rRNA methyltransferase gene by broth microdilution method. Type of assay: functional, Salmonella enterica subsp. enterica serovar Virchow.
Assay [2] can be described thus: (§2) Antimicrobial activity against Salmonella enterica serotype Stanley isolate AM04864 expressing armA rRNA methyltransferase gene by broth microdilution method. Format: functional, Salmonella enterica subsp. enterica serovar Stanley.
For assay [3], the system named is Salmonella enterica subsp. enterica serovar Virchow. The assay is described as §1. Type of assay: functional.
For assay [4], the system named is Salmonella enterica subsp. enterica serovar Stanley. Described as §2. Format: functional.

Take `NCC[C@H](O)C(=O)N[C@@H]1C[C@H](N)[C@@H](O[C@H]2O[C@H](CN)[C@@H](O)[C@H](O)[C@H]2O)[C@H](O)[C@H]1O[C@H]1O[C@H](CO)[C@@H](O)[C@H](N)[C@H]1O` [AMIKACIN]: the minimum inhibitory concentration (MIC) in assay [1] and in assay [2] was > 64 µg/mL in each case.

In the case of `NC[C@H]1O[C@H](O[C@H]2[C@H](O)[C@@H](O[C@H]3O[C@H](CO)[C@@H](O)[C@H](N)[C@H]3O)[C@H](N)C[C@@H]2N)[C@H](O)[C@@H](O)[C@@H]1O` [KANAMYCIN], the minimum inhibitory concentration (MIC) in assay [1] and in assay [2] was > 64 µg/mL in each case.

Regarding GENTAMICIN, the MIC in assay [3] and in assay [4] was > 16 µg/mL throughout.

These data come from ChEMBL document CHEMBL1649210, “Identification of the aminoglycoside resistance determinants armA and rmtC among non-Typhi Salmonella isolates from humans in the United States” (2009).
